# Assay results from ChEMBL document CHEMBL1201862, “PubChem BioAssay data set” (2004).
# The source made the active and inactive calls.
# Experiments:
# [1] = NIH-3T3 fibroblast cytotoxicity, dose response, cytotoxicity control, cell-based, fluorescence, Alamar Blue, secondary assay (AID 2327); type: functional;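 further: NIH-3T3 mouse fibroblasts cultured with fluconazole at 8 µg/mL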
# Beta-galactosidase = Beta-galactosidase (Escherichia coli, UniProt Q8VNN2); test: detection-enzyme interference by beta-gal modulators – biochemical, E. coli enzyme, set 3, artefact control for CCR6 antagonist project, dose response (AID 504712); type: functional
# Beta-galactosidase, sequence (Q8VNN2 whole entry): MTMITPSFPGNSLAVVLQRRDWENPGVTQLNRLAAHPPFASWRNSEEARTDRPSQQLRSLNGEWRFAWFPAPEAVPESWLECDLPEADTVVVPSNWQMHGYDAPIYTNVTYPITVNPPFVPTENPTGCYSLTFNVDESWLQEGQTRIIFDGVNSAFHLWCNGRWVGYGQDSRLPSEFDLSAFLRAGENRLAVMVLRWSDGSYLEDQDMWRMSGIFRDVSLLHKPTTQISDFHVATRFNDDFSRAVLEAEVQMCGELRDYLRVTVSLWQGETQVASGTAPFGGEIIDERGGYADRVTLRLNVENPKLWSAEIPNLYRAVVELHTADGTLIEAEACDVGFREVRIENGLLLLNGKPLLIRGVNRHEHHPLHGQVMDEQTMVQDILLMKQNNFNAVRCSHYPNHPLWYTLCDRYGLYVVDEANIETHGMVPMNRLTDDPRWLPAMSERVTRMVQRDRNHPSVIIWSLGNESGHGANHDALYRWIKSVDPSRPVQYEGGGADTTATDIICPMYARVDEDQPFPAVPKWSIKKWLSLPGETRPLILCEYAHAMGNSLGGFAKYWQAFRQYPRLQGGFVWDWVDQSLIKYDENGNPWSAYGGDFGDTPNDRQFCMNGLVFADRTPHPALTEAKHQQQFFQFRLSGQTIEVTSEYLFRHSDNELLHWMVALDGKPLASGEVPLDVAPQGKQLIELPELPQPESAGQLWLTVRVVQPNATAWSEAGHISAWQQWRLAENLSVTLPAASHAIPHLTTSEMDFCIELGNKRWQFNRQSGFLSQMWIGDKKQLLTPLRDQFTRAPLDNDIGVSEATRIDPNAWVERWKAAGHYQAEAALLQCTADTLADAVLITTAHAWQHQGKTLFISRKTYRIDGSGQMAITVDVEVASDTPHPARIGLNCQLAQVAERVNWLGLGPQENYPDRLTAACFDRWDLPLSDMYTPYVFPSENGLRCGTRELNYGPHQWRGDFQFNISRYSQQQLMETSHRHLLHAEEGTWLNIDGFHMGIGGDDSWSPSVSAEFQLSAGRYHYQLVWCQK
# [2] = molecular target: T1, C-C chemokine receptor type 6 (Homo sapiens, UniProt P51684); test: antagonism of CCR6 beta-arrestin recruitment – cell-based, luminescent beta-arrestin readout, dose response (AID 504728); type: functional
# T1 sequence (P51684 whole entry): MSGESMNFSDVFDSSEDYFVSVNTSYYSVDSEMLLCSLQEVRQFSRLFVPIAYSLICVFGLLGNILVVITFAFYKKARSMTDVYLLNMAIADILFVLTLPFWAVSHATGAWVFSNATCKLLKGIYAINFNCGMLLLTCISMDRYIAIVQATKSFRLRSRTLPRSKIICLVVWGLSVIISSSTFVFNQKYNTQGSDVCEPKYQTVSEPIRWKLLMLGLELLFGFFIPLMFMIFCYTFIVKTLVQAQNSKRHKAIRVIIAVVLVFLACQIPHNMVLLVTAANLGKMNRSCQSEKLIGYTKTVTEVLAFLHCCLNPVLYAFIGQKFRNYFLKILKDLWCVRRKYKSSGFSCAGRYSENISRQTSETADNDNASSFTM
# Exodeoxyribonuclease V = Exodeoxyribonuclease V (Escherichia coli (strain K12), UniProt P04993+P07648+P08394); test: RecBCD inhibition via phage-restricted bacterial growth – absorbance, V66 E. coli, mutant T4 phage, counter-screen for AddAB inhibitor project, dose response (AID 492957); type: functional, cell-based, Escherichia coli str. K-12 substr. MG1655
# [3] = fluconazole-exposed Candida albicans growth modulators – fluorescence, retest, confirmation (AID 2467); type: functional, cell-based
# [4] = molecular target: T2, Replicative DNA helicase DnaB (Mycobacterium tuberculosis, UniProt P9WMR3); test: DnaB intein splicing inhibitors, dose response, biochemical, cell-free fluorescence (AID 449749); type: functional
# T2 sequence (P9WMR3 whole entry): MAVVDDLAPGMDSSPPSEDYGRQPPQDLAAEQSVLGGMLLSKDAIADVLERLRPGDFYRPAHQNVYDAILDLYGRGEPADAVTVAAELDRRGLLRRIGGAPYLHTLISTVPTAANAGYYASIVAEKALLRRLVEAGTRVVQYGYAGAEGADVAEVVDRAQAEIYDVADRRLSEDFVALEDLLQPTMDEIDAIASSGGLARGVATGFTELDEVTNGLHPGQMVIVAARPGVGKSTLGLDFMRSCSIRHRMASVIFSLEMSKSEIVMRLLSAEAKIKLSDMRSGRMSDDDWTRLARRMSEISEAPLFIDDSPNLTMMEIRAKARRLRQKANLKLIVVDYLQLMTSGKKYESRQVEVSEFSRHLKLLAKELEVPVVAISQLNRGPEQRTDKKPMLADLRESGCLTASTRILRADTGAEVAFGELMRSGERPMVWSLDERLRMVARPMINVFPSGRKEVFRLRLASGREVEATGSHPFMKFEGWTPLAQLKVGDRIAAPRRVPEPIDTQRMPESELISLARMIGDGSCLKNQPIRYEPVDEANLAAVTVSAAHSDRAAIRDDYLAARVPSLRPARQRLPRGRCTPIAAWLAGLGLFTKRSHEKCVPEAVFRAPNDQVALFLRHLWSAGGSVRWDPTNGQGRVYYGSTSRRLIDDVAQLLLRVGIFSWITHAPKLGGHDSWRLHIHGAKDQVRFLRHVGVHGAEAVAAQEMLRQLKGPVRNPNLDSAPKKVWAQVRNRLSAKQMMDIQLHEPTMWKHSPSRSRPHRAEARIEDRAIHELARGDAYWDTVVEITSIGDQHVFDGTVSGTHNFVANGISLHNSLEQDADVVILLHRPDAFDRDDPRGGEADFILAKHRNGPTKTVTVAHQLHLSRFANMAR
# [5] = molecular target: Serine/threonine-protein phosphatase (Candida dubliniensis (strain CD36 / CBS 7987 / NCPF 3949 / NRRLY-17841) (Yeast), UniProt B9W6M3); test: blockers of CaCl2-induced CDRE-lacZ signaling – S. cerevisiae, luminescence, secondary, dose response (AID 2388); type: functional, cell-based;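 further: yeast reporter cells carrying a calcineurin-responsive lacZ construct stimulated with calcium chloride; luminescent beta-galactosidase reporter signal in whole cells rather than isolated phosphatase activity; potency for inhibition where a drop in reporter signal means calcineurin blockade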
# Serine/threonine-protein phosphatase, sequence (B9W6M3 whole entry): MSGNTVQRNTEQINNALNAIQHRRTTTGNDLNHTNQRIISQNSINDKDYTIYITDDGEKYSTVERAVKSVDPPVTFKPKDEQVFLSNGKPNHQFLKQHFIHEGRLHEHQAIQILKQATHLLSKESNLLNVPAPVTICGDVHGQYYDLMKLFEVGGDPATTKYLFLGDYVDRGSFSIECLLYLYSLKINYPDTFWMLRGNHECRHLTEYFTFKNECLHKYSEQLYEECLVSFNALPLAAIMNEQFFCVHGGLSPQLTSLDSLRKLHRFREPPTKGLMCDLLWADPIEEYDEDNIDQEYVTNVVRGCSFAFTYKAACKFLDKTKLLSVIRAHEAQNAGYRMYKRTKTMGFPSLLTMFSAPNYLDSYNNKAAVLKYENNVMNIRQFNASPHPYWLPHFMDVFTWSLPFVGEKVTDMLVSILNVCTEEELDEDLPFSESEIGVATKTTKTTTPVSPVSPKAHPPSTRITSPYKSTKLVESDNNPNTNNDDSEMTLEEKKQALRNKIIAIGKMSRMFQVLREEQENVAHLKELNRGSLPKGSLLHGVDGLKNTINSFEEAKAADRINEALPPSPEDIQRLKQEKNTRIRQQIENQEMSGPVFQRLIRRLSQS
# [6] = Counterscreen for AddAB inhibitors: absorbance-based bacterial cell-based high throughput dose response assay for inhibitors of bacterial viability. [Related pubchem assays (depositor defined):AID435030, AID449728, AID449731, AID488942, AID488955, AID488956]; type: functional
# Caspase-6 = Caspase-6 (Homo sapiens, UniProt P55212); test: inhibition of CASP6 peptide cleavage – biochemical, VEID-R110 fluorescence, cherry-pick, dose response (AID 720632)
# Caspase-6, sequence (P55212 24-179 limits assumed): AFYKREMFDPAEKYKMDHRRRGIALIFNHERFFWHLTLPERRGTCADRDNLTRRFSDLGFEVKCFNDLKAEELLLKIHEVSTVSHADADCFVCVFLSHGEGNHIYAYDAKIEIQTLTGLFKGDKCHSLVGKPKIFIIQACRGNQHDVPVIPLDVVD
# Caspase-6, sequence (P55212 194-293 limits assumed): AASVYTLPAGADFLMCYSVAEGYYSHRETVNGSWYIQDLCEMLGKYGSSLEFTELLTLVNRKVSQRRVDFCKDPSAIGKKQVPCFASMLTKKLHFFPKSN
# Protein RecA = molecular target: T3, Protein RecA (Mycobacterium tuberculosis, UniProt P9WHJ3); test: Fluorescence Cell-Free Homogeneous Dose Retest to Identify Inhibitors of RecA-Intein Splicing Activity. [Related pubchem assays (depositor defined):AID2097, AID2223, AID489010, AID492950]; type: functional
# T3 sequence (P9WHJ3 whole entry): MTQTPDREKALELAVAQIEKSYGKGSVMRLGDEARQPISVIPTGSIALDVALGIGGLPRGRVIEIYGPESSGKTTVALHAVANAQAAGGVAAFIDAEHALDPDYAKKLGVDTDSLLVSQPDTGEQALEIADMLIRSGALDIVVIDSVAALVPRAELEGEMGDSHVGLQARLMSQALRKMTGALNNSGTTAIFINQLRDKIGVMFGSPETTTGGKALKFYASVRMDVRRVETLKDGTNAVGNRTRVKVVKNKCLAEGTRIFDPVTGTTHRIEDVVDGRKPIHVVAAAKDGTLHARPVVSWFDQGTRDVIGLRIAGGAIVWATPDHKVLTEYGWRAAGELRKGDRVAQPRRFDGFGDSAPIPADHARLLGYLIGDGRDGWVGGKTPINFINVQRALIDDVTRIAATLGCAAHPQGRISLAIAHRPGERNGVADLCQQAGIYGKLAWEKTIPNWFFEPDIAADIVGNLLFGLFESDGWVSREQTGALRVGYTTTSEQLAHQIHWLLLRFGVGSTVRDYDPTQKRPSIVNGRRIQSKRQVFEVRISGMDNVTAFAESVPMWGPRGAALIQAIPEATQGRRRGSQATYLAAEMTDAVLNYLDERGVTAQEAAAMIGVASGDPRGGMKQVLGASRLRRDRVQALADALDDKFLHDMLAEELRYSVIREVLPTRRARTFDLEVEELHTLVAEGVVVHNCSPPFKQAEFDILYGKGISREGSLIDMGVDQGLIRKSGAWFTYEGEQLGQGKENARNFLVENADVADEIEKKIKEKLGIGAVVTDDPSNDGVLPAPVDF
# [7] = molecular target: ATP-dependent molecular chaperone HSP82 (Candida albicans (strain WO-1) (Yeast), UniProt C4YTQ8); test: steroid-induced GRE reporter decrease in yeast – S. cerevisiae, luminescence, Hsp90 inhibitor project, dose response (AID 2400); type: functional, cell-based;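 further: beta-galactosidase luminescence from glucocorticoid response element reporter as proxy for Hsp90 function; inhibitor potency where signal loss means Hsp90 inhibition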
# ATP-dependent molecular chaperone HSP82, sequence (C4YTQ8 whole entry): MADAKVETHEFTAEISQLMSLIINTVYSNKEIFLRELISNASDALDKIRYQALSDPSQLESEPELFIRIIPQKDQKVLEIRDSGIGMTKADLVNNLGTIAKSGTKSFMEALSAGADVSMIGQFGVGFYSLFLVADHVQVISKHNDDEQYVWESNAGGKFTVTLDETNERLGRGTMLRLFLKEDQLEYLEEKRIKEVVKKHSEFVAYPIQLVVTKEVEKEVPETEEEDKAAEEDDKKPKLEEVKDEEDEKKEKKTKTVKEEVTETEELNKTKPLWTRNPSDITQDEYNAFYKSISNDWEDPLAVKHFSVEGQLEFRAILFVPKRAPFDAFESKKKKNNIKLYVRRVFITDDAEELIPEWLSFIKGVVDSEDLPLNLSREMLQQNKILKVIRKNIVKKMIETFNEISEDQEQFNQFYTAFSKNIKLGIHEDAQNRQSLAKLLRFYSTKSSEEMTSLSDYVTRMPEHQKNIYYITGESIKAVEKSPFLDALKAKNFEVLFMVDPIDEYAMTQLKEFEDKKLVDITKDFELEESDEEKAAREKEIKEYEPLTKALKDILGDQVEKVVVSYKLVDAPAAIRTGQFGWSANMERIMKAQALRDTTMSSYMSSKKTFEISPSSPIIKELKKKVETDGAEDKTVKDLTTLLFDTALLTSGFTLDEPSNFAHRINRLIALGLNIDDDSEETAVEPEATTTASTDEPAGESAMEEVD
# [8] = molecular target: T4, Sentrin-specific protease 6 (Homo sapiens, UniProt Q9GZR1); test: SAR Analysis of small molecule inhibitors of Sentrin-specific protease 6 (SENP6) using a Luminescent assay. [Related pubchem assays (depositor defined):AID2582, AID2599]; type: functional
# T4 sequence (Q9GZR1 whole entry): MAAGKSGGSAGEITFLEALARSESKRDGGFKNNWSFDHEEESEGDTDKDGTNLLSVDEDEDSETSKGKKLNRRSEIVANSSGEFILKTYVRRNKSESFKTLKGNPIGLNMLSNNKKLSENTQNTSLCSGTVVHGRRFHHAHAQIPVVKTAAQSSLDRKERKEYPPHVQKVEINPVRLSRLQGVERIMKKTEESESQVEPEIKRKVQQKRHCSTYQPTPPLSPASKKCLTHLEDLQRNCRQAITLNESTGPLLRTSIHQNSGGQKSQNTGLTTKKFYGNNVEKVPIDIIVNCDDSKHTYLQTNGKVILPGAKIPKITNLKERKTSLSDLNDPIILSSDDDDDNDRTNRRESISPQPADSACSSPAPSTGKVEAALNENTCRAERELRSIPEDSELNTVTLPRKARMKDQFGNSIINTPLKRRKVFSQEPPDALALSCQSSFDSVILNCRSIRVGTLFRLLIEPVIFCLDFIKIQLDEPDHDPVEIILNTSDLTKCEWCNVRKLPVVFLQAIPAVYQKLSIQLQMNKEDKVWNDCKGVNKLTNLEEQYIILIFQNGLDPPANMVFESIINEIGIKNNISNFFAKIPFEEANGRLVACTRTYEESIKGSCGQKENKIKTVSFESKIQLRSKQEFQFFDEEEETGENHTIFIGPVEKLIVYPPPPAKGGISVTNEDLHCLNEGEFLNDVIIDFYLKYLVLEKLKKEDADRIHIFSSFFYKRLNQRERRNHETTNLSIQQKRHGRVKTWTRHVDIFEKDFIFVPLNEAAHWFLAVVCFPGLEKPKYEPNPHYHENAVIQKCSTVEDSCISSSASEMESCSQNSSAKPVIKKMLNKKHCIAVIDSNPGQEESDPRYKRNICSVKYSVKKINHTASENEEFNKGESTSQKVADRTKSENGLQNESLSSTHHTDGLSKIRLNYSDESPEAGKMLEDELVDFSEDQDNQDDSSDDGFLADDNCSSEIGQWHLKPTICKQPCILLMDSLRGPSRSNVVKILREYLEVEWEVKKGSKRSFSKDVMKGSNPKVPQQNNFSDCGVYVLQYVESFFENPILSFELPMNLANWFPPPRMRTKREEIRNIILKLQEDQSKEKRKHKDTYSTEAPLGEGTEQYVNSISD
# [9] = molecular target: T5, Sentrin-specific protease 8 (Homo sapiens, UniProt Q96LD8); test: inhibition of human SENP8 cleavage activity – biochemical, luminescence, SAR follow-up (AID 504501); type: functional
# T5 sequence (Q96LD8 whole entry): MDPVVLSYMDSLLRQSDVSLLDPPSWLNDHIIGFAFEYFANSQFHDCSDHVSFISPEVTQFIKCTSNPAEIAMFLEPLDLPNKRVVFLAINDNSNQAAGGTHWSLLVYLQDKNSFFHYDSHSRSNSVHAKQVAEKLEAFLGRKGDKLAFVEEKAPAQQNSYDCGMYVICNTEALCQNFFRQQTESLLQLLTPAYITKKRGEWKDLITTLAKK
# Caspase-3 = molecular target: T6, Caspase-3 (Homo sapiens, UniProt P42574); test: SAR Analysis of small molecule inhibitors of Sentrin-specific proteases (SENPs) using a Caspase-3 Selectivity assay. [Related pubchem assays (depositor defined):AID2540, AID2599, AID434973, AID489001]; type: functional
# T6 sequence (P42574 whole entry): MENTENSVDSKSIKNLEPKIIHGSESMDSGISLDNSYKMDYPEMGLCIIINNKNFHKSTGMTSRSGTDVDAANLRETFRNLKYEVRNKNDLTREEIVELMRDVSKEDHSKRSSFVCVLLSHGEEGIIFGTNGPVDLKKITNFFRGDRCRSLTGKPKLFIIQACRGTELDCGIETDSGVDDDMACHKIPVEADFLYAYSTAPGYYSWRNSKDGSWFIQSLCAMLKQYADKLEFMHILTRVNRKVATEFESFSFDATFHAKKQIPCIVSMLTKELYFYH
# [10] = molecular target: T7, Sentrin-specific protease 7 (Homo sapiens, UniProt Q9BQF6); test: inhibition of human SENP7 cleavage activity – biochemical, luminescence, SAR follow-up (AID 504497); type: functional
# T7 sequence (Q9BQF6 whole entry): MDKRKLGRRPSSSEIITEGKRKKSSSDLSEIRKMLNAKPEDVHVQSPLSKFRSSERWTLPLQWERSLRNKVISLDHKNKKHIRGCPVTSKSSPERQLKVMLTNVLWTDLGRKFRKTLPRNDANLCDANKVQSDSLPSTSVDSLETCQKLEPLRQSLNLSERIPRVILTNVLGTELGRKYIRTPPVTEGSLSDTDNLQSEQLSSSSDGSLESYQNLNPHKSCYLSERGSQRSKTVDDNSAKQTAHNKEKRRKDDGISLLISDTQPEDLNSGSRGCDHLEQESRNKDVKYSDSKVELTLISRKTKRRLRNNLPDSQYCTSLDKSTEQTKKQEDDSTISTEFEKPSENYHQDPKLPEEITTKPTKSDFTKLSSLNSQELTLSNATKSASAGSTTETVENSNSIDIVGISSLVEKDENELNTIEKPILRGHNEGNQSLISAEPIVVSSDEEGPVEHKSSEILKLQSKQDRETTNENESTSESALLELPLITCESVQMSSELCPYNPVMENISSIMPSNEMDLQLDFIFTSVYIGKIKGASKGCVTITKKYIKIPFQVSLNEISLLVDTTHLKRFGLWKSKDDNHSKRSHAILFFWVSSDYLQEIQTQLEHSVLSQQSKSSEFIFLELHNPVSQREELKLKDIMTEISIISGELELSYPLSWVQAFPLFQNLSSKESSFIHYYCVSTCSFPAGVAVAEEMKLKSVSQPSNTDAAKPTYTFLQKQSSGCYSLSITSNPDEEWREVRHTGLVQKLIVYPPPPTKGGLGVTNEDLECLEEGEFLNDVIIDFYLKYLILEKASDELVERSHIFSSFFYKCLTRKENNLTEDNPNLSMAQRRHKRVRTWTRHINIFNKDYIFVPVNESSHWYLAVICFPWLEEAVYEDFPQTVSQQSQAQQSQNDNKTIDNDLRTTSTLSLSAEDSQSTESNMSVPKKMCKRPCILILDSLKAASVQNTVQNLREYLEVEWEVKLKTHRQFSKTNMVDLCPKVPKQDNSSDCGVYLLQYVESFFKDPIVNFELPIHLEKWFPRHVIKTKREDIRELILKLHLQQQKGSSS
Compound,EC50 [1],IC50 (Beta-galactosidase),IC50 [2],IC50 (Exodeoxyribonuclease V),EC50 [3],AC50 [4],EC50 [5],IC50 [6],AC50 (Caspase-6),EC50 (Protein RecA),EC50 [7],IC50 [8],IC50 [9],IC50 (Caspase-3),IC50 [10]
O=[N+]([O-])c1cc(O)c2ncccc2c1,42.1 µM (active),> 66.6 µM (inactive),> 66.6 µM (inactive),62.3 µM (inactive),0.706 µM (active),6.95 µM (active),> 180 µM (inactive),41.5 µM (inactive),17.3 µM (active),4.6 µM (active),18.5 µM (active),–,–,–,–
O=C(Nc1nc2ccc(Cl)cc2s1)C1CCCCC1,–,–,–,–,–,–,–,–,–,–,–,> 99 µM (inactive),> 99 µM (inactive),> 99 µM (inactive),> 99 µM (inactive)
COc1cc(OC)cc(-c2noc(/C=C/c3ccccc3Cl)n2)c1,–,–,–,–,–,–,–,–,–,–,–,> 99 µM (inactive),> 99 µM (inactive),> 99 µM (inactive),> 99 µM (inactive)
